In patent US5834452A, “1- or 6-hydroxylated steroids” (Roussel Uclaf, priority 1996, dated 1998):

How the values were obtained:
[1] = test system: endometrial proliferation (uterine lace); assay: Progestomimetic activity: endometrial transformation in the rabbit (Clauberg-McPhail test); format: in vivo; set-up: key to Maximal activity on the uterine lace (McPhail index) / Average uterine lace (McPhail Index): McPhail scale 0–4 with 0.5 steps (endometrial proliferation); conditions: for Average uterine lace (McPhail Index): s/c, day 8 to day 11
Experimental: 2. --Determination of the progestomimetic activity of the products of the invention: Endometrial transformation in the rabbit. The animals used were impuberal female rabbits which were 40-45 days old. The animals were treated with estradiol (5 ug/0.2 ml/rabbit in solution of corn oil, 10% ethanol) by subcutaneous route from day 1 to day 5, then the product to be studied was administered from day 8 to day 11. On day 12, the animals were sacrificed and a median portion of each uterine cornua was removed from each animal and fixed in Bouin's liquid for histological study. After fixing, the samples were dehydrated, included, cut, mounted, the paraffin was removed and then the sample was stained with hemalum-eosin-saffron. […] Then, for each of the cornua, a semi-quantitative evaluation of the endometrial proliferation (uterine lace) was carried out by the McPhail scale from 0 to 4 with 0.5 intermediates and the two figures were averaged. Similarly, the degree of hypertrophy of the cornua was evaluated by the same scale. At higher magnification, morphological observations of the mucous membrane or the myometrium could possibly be formulated. The 1-OH metabolite (product A) was tested at doses of 10, 100, 1000 μg/kg by subcutaneous route as well as orally at a dose of 1000 μg/kg. The 6-OH metabolite (product B) was tested at doses of 100, 1000 and 10000 μg/kg subcutaneously. As a control, progesterone was administered at doses of 100 and 1000 μg/kg by subcutaneous route. The averages were produced for the uterine lace (McPhail Index).

[2] = target: T1, Human progesterone receptor (HPR) (Homo sapiens, UniProt P06401); assay: Relative bond affinity (RBA), recombinant human progestogen receptor, charcoal dextran technique; format: binding; conditions: 24 h at 0° C., Progesterone = 100
T1 construct: made in house; host or cells: SF9 insect cells (ATCC CRL1711), baculovirus, lysate supernatant
T1 sequence (P06401 1-933): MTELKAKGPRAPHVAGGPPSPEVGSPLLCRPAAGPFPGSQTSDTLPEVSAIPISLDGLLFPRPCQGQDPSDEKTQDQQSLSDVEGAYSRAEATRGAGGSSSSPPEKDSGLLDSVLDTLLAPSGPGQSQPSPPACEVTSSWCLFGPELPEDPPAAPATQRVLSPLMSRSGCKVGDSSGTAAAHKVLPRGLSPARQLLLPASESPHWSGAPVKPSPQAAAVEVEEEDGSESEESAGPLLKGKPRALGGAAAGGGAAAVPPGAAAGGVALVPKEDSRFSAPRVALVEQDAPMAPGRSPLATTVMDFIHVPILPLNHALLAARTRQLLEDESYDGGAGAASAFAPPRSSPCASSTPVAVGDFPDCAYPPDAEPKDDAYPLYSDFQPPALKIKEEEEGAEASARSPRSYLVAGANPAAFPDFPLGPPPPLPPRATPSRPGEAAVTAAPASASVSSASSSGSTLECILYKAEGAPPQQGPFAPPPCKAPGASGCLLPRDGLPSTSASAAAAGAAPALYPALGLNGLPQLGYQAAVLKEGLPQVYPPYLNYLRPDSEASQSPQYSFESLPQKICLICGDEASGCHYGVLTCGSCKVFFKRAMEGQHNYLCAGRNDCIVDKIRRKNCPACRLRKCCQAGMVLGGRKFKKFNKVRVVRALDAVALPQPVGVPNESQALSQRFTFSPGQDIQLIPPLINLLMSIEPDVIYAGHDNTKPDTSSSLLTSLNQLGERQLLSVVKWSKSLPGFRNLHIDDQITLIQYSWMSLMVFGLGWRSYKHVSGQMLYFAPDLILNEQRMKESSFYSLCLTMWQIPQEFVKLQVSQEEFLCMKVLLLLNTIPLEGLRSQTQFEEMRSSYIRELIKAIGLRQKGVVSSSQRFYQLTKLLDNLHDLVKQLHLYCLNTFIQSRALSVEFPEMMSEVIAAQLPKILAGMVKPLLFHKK
Source text: The human recombinant receptor (HGR, HPR, HAR, HMR, HER) was used.
Human progesterone receptor (HPR):
The recombinant human progestogen receptor was obtained by the superexpression in a cell system of insects--Baculovirus, according to the methodology described by Webb et al (Journal of Methods in Cell and Molecular Biology, (1990) Vol. 2 No. 4, p. 173-188) and the application of which was described for the expression of human hormonal receptors, for example the human glucocorticoid receptor (Srinivasan et al, Molecular Endocrinology, (1990) Vol. 4 No. 2, p. 209-216.
The BaculoGold Transfection Kit (PharMingen, reference 21000K) was used to insert the cDNA fragment described by Kastner et al (The EMBO Journal, (1990), Vol. 9 No. 5, p. 1603-1614), containing the region coding for the human progestogen receptor and to prepare the corresponding recombinant virus. The recombinant virus obtained in this way was used to express the progestogen receptor in SF9 insect cells (ATCC CRL1711), according to the known methodology cited previously.
2×10^7 to 2.5×10^7 SF9 cells were cultured in a 175 ml "Falcon" flask in the TNM-FH medium supplemented with 10% fetal calf serum (FCS) and with 50 micrograms/ml of gentamycin. After infection, then incubation at 27° C. for 40 to 42 hours, the cells were taken up in 1 ml of lysis buffer (1), lysed by 2 cycles of freezing-thawing (-80° C./ 0° C.), then centrifuged at 4° C. for 30 minutes at 20,900 g. The supernatant, containing the recombinant human progestogen receptor, was stored in liquid nitrogen in quantities of 1 ml.
The supernatant was diluted at the time of use with 10 mM Tris buffer, 0.25M saccharose, HCl pH 7.4 containing 0.1% of gelatin and then incubated at 0° C. for 24 hours with a constant concentration (T) of tritiated 17α, 21-dimethyl-19-nor-Δ^4,9 pregnadiene-3,20-dione in the presence of increasing concentrations of either unlabelled progesterone (0-2500×10^-9 M), or the unlabelled product to be tested (1 to 25000×10^-9 M). The concentration of bound tritiated 17,21-dimethyl-19-nor-Δ^4,9 -pregnadiene-3,20-dione (B) was then measured in each incubate using the charcoal dextran adsorption technique.
Calculation of the relative bond affinity (RBA).
The following two curves were drawn: the percentage of bound tritiated hormone B/BO as a function of the logarithm of the concentration of unlabelled reference hormone or as a function of the logarithm of the concentration of unlabelled test product. The straight line of the following equation was determined: […]
The relative bond affinity (RBA) of the test product was determined by the equation: […]

Row | Compound | Average uterine lace (McPhail Index) ([1]; rabbit, 0,01 mg/kg) | Average uterine lace (McPhail Index) ([1]; rabbit, 0,1 mg/kg) | RBA, Human progestogen receptor [2] | RBA, Human progestogen receptor ([2]; listed as product B) | minimal effective dose ([1]; Oryctolagus cuniculus, rabbit, note on this test, read-out: Dose from which progestomimetic activity starts)
1 | C[C@H](O)C(=O)[C@@]1(C)CC[C@H]2[C@@H]3C[C@@H](O)C4=CC(=O)CCC4=C3CC[C@@]21C [Product B, [6β, 17β-(S)]-6-hydroxy-17-(2-hydroxy-1-oxopropyl)-17-methyl-Δ^4,9-estradiene-3-one] | 1,4 | 2 | 12 | moderate RBA | 
2 | C[C@H](O)C(=O)[C@@]1(C)CC[C@H]2[C@@H]3CCC4=CC(=O)CCC4=C3CC[C@@]21C [Trimegestone, [17β-(S)]-17-(2-hydroxy-1-oxopropyl)-17-methyl-Δ^4,9-estradiene-3-one, reference compound] |  |  | 588 |  | 1 µg/kg
